Each molecule was assayed on Human primary T cells (assay: IL-2 ELISA, human primary T cell, anti-CD3+CD28 stimulation). Conditions: IL-2 quantified by ELISA; human primary T cells stimulated with αCD3 and αCD28, 24 hours.
Format: cell-based
Experimental: Human primary T cell isolation and culture: Human primary T cells were prepared as follows. Whole blood was obtained from a healthy volunteer, mixed 1:1 with PBS, layered on to Ficoll Hypaque (Amersham Pharmacia Biotech, Piscataway, N.J., Catalog #17-1440-03) in 2:1 blood/PBS:ficoll ratio and centrifuged for 30 minutes at 4° C. at 1750 rpm. The cells at the serum: ficoll interface were recovered and washed twice with 5 volumes of PBS. These freshly isolated human peripheral blood mononuclear cells were cultured in Yssel's medium containing 40 U/mL IL2 in a flask pre-coated with 1 μg/mL αCD3 and 5 μg/mL αCD28 (Anti-Human CD3, BD Pharmingen Catalog #555336, Anti-Human CD28, Beckman Coulter Catalog #IM1376). The cells were stimulated for 3-4 days, then transferred to a fresh flask and maintained in RPMI (RPMI-1640 with L-Glutamine; Mediatech, Inc., Herndon Va., cat. #10-040-CM) with 10% FBS and 40 U/mL IL-2. The primary T-cells were then washed twice with PBS to remove the IL-2.
Primary T cell stimulation and IL2 ELISA: Human primary T cells (100,000 cells per well) were pre-incubated with or without test compound in Yssel's medium for 1 hour at 37° C. Cells were then stimulated by transferring them to round-bottom 96-well plates pre-coated with 1 μg/ml αCD3 and 5 μg/ml αCD28. For counter assay, cells were instead stimulated by adding 8× stock solutions of PMA and ionomycin in Yssels (for final concentrations of 0.5 ng/ml PMA and 0.1 uM ionomycin, both from Calbiochem). Cells were incubated at 37° C. for 24 hours before 100 μL supernatants were harvested for quantification of IL-2 by ELISA using Human IL-2 Duoset ELISA Kit from R and D Systems, Cat. # DY202E.
`CC(C)Oc1ccc(Nc2ncc(F)c(NC3CC(C)(C)NC(C)(C)C3)n2)cc1-n1nnn(C)c1=O` [I-11, 5-fluoro-n2-{4-isopropoxy-[3-(4-methyl)-1,2,3,4-tetrazol-5-one-1-yl]}phenyl-n4-(2,2,6,6-tetramethylpiperidin-4-yl)-2,4-pyrimidinediamine] gave an IC50 of less than 500 nM.
With `CC1(C)CC(Nc2nc(Nc3ccc(F)c(-n4nnn(CCF)c4=O)c3)ncc2F)CC(C)(C)N1` [I-7, 5-fluoro-n2-{4-fluoro-3-[4-(2-fluoroethyl)-1,2,3,4-tetrazol-5-one-1-yl]}phenyl-n4-(2,2,6,6-tetramethylpiperidin-4-yl)-2,4-pyrimidinediamine] the IC50 was 510 to 2990 nM.

Same assay, conditions: T-cell; IL-2 quantified by ELISA; human primary T cells stimulated with αCD3 and αCD28, 24 hours
For `Cn1nnn(-c2cc(Nc3ncc(F)c(NC4CC(C)(C)NC(C)(C)C4)n3)cc(C3CC3)c2F)c1=O` [I-43, N2-{5-cyclopropyl-4-fluoro-[3-(4-methyl)-1,2,3,4-tetrazol-5-one-1-yl]}phenyl-5-fluoro-N4-(2,2,6,6-tetramethylpiperidin-4-yl)-2,4-pyrimidinediamine], the IC50 was less than 500 nM.
In the case of `Cn1nnn(-c2cc(Nc3ncc(C#N)c(NC4CC(C)(C)NC(C)(C)C4)n3)c(F)cc2C2CC2)c1=O` [I-15, 5-cyano-N2-{4-cyclopropyl-6-fluoro[3-(4-methyl)-1,2,3,4-tetrazol-5-one-1-yl]}phenyl-N4-(2,2,6,6-tetramethylpiperidin-4-yl)-2,4-pyrimidineamine], the IC50 is reported as less than 500 nM.
`CN1C(C)(C)CC(Nc2nc(Nc3ccc(OC4CCOCC4)c(-n4nnn(C)c4=O)c3)ncc2F)CC1(C)C` [I-26] showed an IC50 of less than 500 nM.
`CN1C(C)(C)CC(Nc2nc(Nc3cc(-n4nnn(C)c4=O)c(C4CC4)cc3F)ncc2C#N)CC1(C)C` [I-17, 5-cyano-N2-{4-cyclopropyl-6-fluoro-[3-(4-methyl)-1,2,3,4-tetrazol-5-one-1-yl]}phenyl-N4-(1,2,2,6,6-pentamethylpiperidin-4-yl)-2,4-pyrimidinediamine] showed an IC50 of less than 500 nM.
For `CN1C(C)(C)CC(Nc2nc(Nc3cc(-n4nnn(C)c4=O)c(C4CC4)cc3F)ncc2F)CC1(C)C` [I-16, N2-{4-cyclopropyl-6-fluoro-[3-(4-methyl)-1,2,3,4-tetrazol-5-one-1-yl]}phenyl-5-fluoro-N4-(1,2,2,6,6-pentamethylpiperidin-4-yl)-2,4-pyrimidineamine], the IC50 was less than 500 nM.
Work on `Cn1nnn(-c2cc(Nc3ncc(F)c(NC4CC(C)(C)NC(C)(C)C4)n3)cc(C(F)(F)F)c2Cl)c1=O` [I-38, N2-{4-chloro-5-trifluoromethyl-[3-(4-methyl)-1,2,3,4-tetrazol-5-one-1-yl]}phenyl-5-fluoro-N4-(2,2,6,6-tetramethylpiperidin-4-yl)-2,4-pyrimidinediamine] yielded an IC50 of less than 500 nM.
`Cn1nnn(-c2cc(Nc3ncc(F)c(NC4CC(C)(C)NC(C)(C)C4)n3)cc(F)c2C2CC2)c1=O` [I-59, 1-(2-cyclopropyl-3-fluoro-5-(5-fluoro-4-(2,2,6,6-tetramethylpiperidin-4-ylamino)pyrimidin-2-ylamino)phenyl)-4-methyl-1H-tetrazol-5(4H)-one] showed an IC50 of less than 500 nM.
For `CN1C(C)(C)CC(Nc2nc(Nc3cc(OC4COC4)cc(-n4nnn(C)c4=O)c3)ncc2F)CC1(C)C` [I-24, 1-(3-(4-(1,2,2,6,6-pentamethylpiperidin-4-ylamino)-5-fluoropyrimidin-2-ylamino)-5-(oxetan-3-yloxy)phenyl)-4-methyl-1H-tetrazol-5(4H)-one], the IC50 was less than 500 nM.
`CN1C(C)(C)CC(Nc2nc(Nc3cc(-n4nnn(C)c4=O)c(C4CC4)c(C(F)(F)F)c3)ncc2C#N)CC1(C)C` [I-42, 5-cyano-N2-{4-cyclopropyl-5-trifluoromethyl-[3-(4-methyl)-1,2,3,4-tetrazol-5-one-1-yl]}phenyl-N4-(1,2,2,6,6-pentamethylpiperidin-4-yl)-2,4-pyrimidinediamine] gave an IC50 of less than 500 nM.
Molecule `CN1C(C)(C)CC(Nc2nc(Nc3cc(C#N)cc(-n4nnn(C)c4=O)c3)ncc2F)CC1(C)C` [I-49] has an IC50 of less than 500 nM.
`CN1C(C)(C)CC(Nc2nc(Nc3ccc(F)c(-n4nn[nH]c4=O)c3)ncc2F)CC1(C)C` [I-1, 5-fluoro-n2-{4-fluoro-[3-(4-h)-1,2,3,4-tetrazol-5-one-1-yl]}phenyl-n4-(1,2,2,6,6-pentamethylpiperidin-4-yl)-2,4-pyrimidinediamine] showed an IC50 of 3000 to 25000 nM.
With `CN1C(C)(C)CC(Nc2nc(Nc3cc(C4CC4)cc(-n4nnn(C)c4=O)c3)ncc2F)CC1(C)C` [I-36, N2-{5-cyclopropyl-[3-(4-methyl)-1,2,3,4-tetrazol-5-one-1-yl]}phenyl-5-fluoro-N4-(1,2,2,6,6-pentamethylpiperidin-4-yl)-2,4-pyrimidinediamine] the IC50 was less than 500 nM.
`Cn1nnn(-c2cc(Nc3ncc(F)c(NC4CC(C)(C)NC(C)(C)C4)n3)cc(C(F)(F)F)c2)c1=O` [I-48, N2-(3-(4-methyl-4,5-dihydro-5-oso-1H-tetrazol-1-yl)-5-trifluoromethylphenyl)-5-fluoro-N4-(2,2,6,6-tetramethylpiperidin-4-yl)pyrimidine-2,5-diamine] was tested, and the IC50 was less than 500 nM.
With `CN1C(C)(C)CC(Nc2nc(Nc3ccc(F)c(-n4nnn(C)c4=O)c3F)ncc2F)CC1(C)C` [I-66, N2-(2,4-difluoro-3-(4-methyl-4,5-dihydro-5-oxo-1H-tetrazol-1-yl)phenyl)-5-fluoro-N4-(1,2,2,6,6-pentamethylpiperidin-4-yl)pyrimidine-2,4-diamine] the IC50 was 3000 to 25000 nM.
For `CN1C(C)(C)CC(Nc2nc(Nc3ccc(Cl)c(-n4nnn(C)c4=O)c3)ncc2F)CC1(C)C` [I-29, N2-{4-chloro-[3-(4-methyl)-1,2,3,4-tetrazol-5-one-1-yl]}phenyl-5-fluoro-N4-(1,2,2,6,6-pentamethylpiperidin-4-yl)-2,4-pyrimidinediamine], the IC50 was less than 500 nM.
With `Cn1nnn(-c2cc(Nc3ncc(F)c(NC4CC(C)(C)NC(C)(C)C4)n3)c(F)cc2Cl)c1=O` [I-68] the IC50 was less than 500 nM.
In the case of `Cc1c(Cl)cc(Nc2ncc(F)c(NC3CC(C)(C)N(C)C(C)(C)C3)n2)cc1-n1nnn(C)c1=O` [I-56, N2-(5-chloro-4-methyl-3-(4-methyl-4,5-dihydro-5-oxo-1H-tetrazol-1-yl)phenyl)-5-fluoro-N4-(1,2,2,6,6-pentamethylpiperidin-4-yl)pyrimidine-2,4-diamine], the IC50 is reported as less than 500 nM.
`CN1C(C)(C)CC(Nc2nc(Nc3cc(-n4nnn(C)c4=O)c(C4CC4)c(C(F)(F)F)c3)ncc2F)CC1(C)C` [I-40, N2-{4-cyclopropyl-5-trifluoromethyl-[3-(4-methyl)-1,2,3,4-tetrazol-5-one-1-yl]}phenyl-5-fluoro-N4-(1,2,2,6,6-pentamethylpiperidin-4-yl)-2,4-pyrimidinediamine] showed an IC50 of less than 500 nM.
In the case of `Cc1c(C(=O)O)cc(Nc2ncc(F)c(NC3CC(C)(C)N(C)C(C)(C)C3)n2)cc1-n1nnn(C)c1=O` [I-65, 5-((5-fluoro-4-((1,2,2,6,6-pentamethylpiperidin-4-yl)amino)-2-pyrimidinyl)amino)-2-methyl-3-(4-methyl-4,5-dihydro-5-oxo-1H-tetrazol-1-yl)benzoic Acid], the IC50 is reported as 3000 to 25000 nM.
For `COc1cc(Nc2ncc(F)c(NC3CC(C)(C)N(C)C(C)(C)C3)n2)cc(-n2nnn(C)c2=O)c1` [I-31, N2-{5-methody-[3-(4-methyl)-1,2,3,4-tetrazol-5-one-1-yl]}phenyl-5-fluoro-N4-(1,2,2,6,6-pentamethylpiperidin-4-yl)-2,4-pyrimidinediamine], the IC50 was less than 500 nM.
`Cc1c(-n2nnn(C)c2=O)cc(Nc2ncc(F)c(NC3CC(C)(C)N(C)C(C)(C)C3)n2)cc1C(F)(F)F` [I-54, N2-(4-methyl-3-(4-methyl-4,5-dihysro-5-oxo-1H-tetrazol-1-yl)-5-trifluoromethylphenyl)-5-fluoro-N4-(1,2,2,6,6-pentamethylpiperidin-4-yl)pyrimidine-2,4-diamine] showed an IC50 of less than 500 nM.
`COC(=O)c1cc(Nc2ncc(F)c(NC3CC(C)(C)NC(C)(C)C3)n2)cc(-n2nnn(C)c2=O)c1C` [I-60, Methyl 5-((5-fluoro-4-((2,2,6,6-tetramethylpiperidin-4-yl)amino)-2-pyrimidinyl)amino)-2-methyl-3-(4-methyl-4,5-dihysro-5-oxo-1H-tetrazol-1-yl)benzoate] gave an IC50 of less than 500 nM.
For `Cn1nnn(-c2cc(Nc3ncc(F)c(NC4CC(C)(C)NC(C)(C)C4)n3)ccc2OC2CCOCC2)c1=O` [I-27, N2-{4-(tetrahydropyran-4-yloxy)-[3-(4-methyl)-1,2,3,4-tetrazol-5-one-1-yl]}phenyl-5-fluoro-N4-(2,2,6,6-tetramethylpyridin-4-yl)-2,4-pyrimidinediamine], the IC50 was less than 500 nM.
Work on `Cn1nnn(-c2cc(C#N)cc(Nc3ncc(F)c(NC4CC(C)(C)NC(C)(C)C4)n3)c2)c1=O` [I-50, N2-(5-cyano-3-(4-methyl-4,5-dihysro-5-oxo-1H-tetrazol-1-yl)phenyl)-5-fluoro-N4-(2,2,6,6-tetramethylpiperidin-4-yl)pyrimidine-2,4-diamine] yielded an IC50 of less than 500 nM.
With `Cn1nnn(-c2cc(Nc3ncc(F)c(NC4CC(C)(C)NC(C)(C)C4)n3)ccc2OC2COC2)c1=O` [I-21, 1-(5-(4-(2,2,6,6-gtetramethylpiperidin-4-ylamino)-5-fluoropyrimidin-2-ylamino)-2-(oxetan-3-yloxy)phenyl)-4-methyl-1H-tetrazol-5(4H)-one] the IC50 was less than 500 nM.
